Assay results as given in PubChem BioAssay AID330 (DTP/NCI, 2004).
Values joined by “and” are separate entries in the source; they are usually repeats but may differ in a detail not shown here. Equal values may be shown once. Inconclusive results and toxic doses are left out.

System: P388 leukemia ip, CD2F1 mice, survival T/C
Assay: NCI In Vivo Anticancer Drug Screen. Data for tumor model P388 Leukemia (intraperitoneal) in CD2F1 (CDF1) mice
Conditions: endpoint: median survival time, higher = longer survival
Method in brief: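 Mice carrying the transplanted tumor received test compound or vehicle. Survival was recorded in each group, and the value is the treated-group measurement divided by that of the vehicle-treated control group.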

[1] = dose: 60.0 mg/kg/injection, schedule: Q01DX005 (ip), vehicle: saline with Tween-80
[2] = dose: 50.0 mg/kg/injection, schedule: Q01DX005 (ip), vehicle: Klucel (hydroxypropylcellulose) (HPC)
[3] = dose: 100.0 mg/kg/injection, schedule: Q01DX005 (ip), vehicle: Klucel (hydroxypropylcellulose) (HPC)
[4] = dose: 200.0 mg/kg/injection, schedule: Q01DX005 (ip), vehicle: Klucel (hydroxypropylcellulose) (HPC)
[5] = dose: 120.0 mg/kg/injection, schedule: Q01DX005 (ip), vehicle: saline with Tween-80
[6] = dose: 100.0 mg/kg/injection, schedule: Q01DX001 (ip), vehicle: Klucel (hydroxypropylcellulose) (HPC)
[7] = dose: 200.0 mg/kg/injection, schedule: Q01DX001 (ip), vehicle: Klucel (hydroxypropylcellulose) (HPC)
[8] = dose: 400.0 mg/kg/injection, schedule: Q01DX001 (ip), vehicle: Klucel (hydroxypropylcellulose) (HPC)
[9] = dose: 50.0 mg/kg/injection, schedule: Q01DX009 (ip), vehicle: saline with Tween-80
[10] = dose: 100.0 mg/kg/injection, schedule: Q01DX009 (ip), vehicle: saline with Tween-80
[11] = dose: 50.0 mg/kg/injection, schedule: Q01DX005 (ip), vehicle: saline
[12] = dose: 100.0 mg/kg/injection, schedule: Q01DX005 (ip), vehicle: saline
[13] = dose: 25.0 mg/kg/injection, schedule: Q01DX009 (ip), vehicle: saline with Tween-80

Structure (SMILES): NC(=S)N/N=C1/C(=O)N(c2ccc(Cl)cc2)C(=O)C1C(=O)Nc1ccc(Cl)cc1 (centres undefined)
- T/C (dose: 15.0 mg/kg/injection, schedule: Q01DX005 (ip), vehicle: saline with Tween-80): 97 % of control
- T/C (dose: 30.0 mg/kg/injection, schedule: Q01DX005 (ip), vehicle: saline with Tween-80): 94 % of control
- T/C [1]: 93 % of control and 94 % of control

Structure (SMILES): O=C1NC(O)c2cc(Cl)ccc2O1 (centres undefined)
- T/C [2]: 96 % of control
- T/C [3]: 97 % of control
- T/C [4]: 96 % of control

Structure (SMILES): CCOc1ccccc1NC(=O)/C(Cl)=C(\Cl)C(=O)O
- T/C [1]: 109 % of control
- T/C [5]: 107 % of control

Structure (SMILES): NC(=O)Nc1ccc(Cl)cc1[N+](=O)[O-]
- T/C (dose: 37.5 mg/kg/injection, schedule: Q01DX009 (ip), vehicle: Klucel (hydroxypropylcellulose) (HPC)): 99 % of control
- T/C (dose: 75.0 mg/kg/injection, schedule: Q01DX009 (ip), vehicle: Klucel (hydroxypropylcellulose) (HPC)): 98 % of control

Structure (SMILES): CC(C)(C(=O)O[Si](C)(C)C)/C(=C/[Si](C)(C)C)O[Si](C)(C)C
- T/C (dose: 100.0 mg/kg/injection, schedule: Q01DX001 (ip), vehicle: saline with Tween-80): 103 % of control
- T/C (dose: 200.0 mg/kg/injection, schedule: Q01DX001 (ip), vehicle: saline with Tween-80): 99 % of control
- T/C (dose: 400.0 mg/kg/injection, schedule: Q01DX001 (ip), vehicle: saline with Tween-80): 102 % of control

Structure (SMILES): CC1OC2CC(O)C1(O)C1=C2C(O)=C(C(N)=O)C(=N)C1=O (centres undefined)
- T/C (dose: 0.01 mg/kg/injection, schedule: Q01DX009 (ip), vehicle: water): 99 % of control
- T/C (dose: 0.03 mg/kg/injection, schedule: Q01DX009 (ip), vehicle: water): 100 % of control
- T/C (dose: 0.07 mg/kg/injection, schedule: Q01DX009 (ip), vehicle: other): 95 % of control
- T/C (dose: 0.1 mg/kg/injection, schedule: Q01DX009 (ip), vehicle: water): 100 % of control
- T/C (dose: 0.15 mg/kg/injection, schedule: Q01DX009 (ip), vehicle: other): 98 % of control
- T/C (dose: 0.3 mg/kg/injection, schedule: Q01DX009 (ip), vehicle: water): 100 % of control
- T/C (dose: 0.31 mg/kg/injection, schedule: Q01DX005 (ip), vehicle: saline): 104 % of control
- T/C (dose: 0.31 mg/kg/injection, schedule: Q01DX009 (ip), vehicle: other): 107 % of control
- T/C (dose: 0.62 mg/kg/injection, schedule: Q01DX005 (ip), vehicle: saline): 104 % of control
- T/C (dose: 0.62 mg/kg/injection, schedule: Q01DX009 (ip), vehicle: other): 101 % of control
- T/C (dose: 1.0 mg/kg/injection, schedule: Q01DX009 (ip), vehicle: water): 90 % of control
- T/C (dose: 1.25 mg/kg/injection, schedule: Q01DX005 (ip), vehicle: saline): 104 % of control
- T/C (dose: 1.25 mg/kg/injection, schedule: Q01DX009 (ip), vehicle: other): 103 % of control
- T/C (dose: 2.5 mg/kg/injection, schedule: Q01DX005 (ip), vehicle: saline): 104 % of control
- T/C (dose: 2.5 mg/kg/injection, schedule: Q01DX009 (ip), vehicle: other): 113 % of control
- T/C (dose: 3.0 mg/kg/injection, schedule: Q01DX009 (ip), vehicle: water): 100 % of control
- T/C (dose: 5.0 mg/kg/injection, schedule: Q01DX005 (ip), vehicle: saline): 101 % of control

Structure (SMILES): COC1OC(C)C(=O)C2OC12 (centres undefined)
- T/C (dose: 50.0 mg/kg/injection, schedule: Q01DX009 (ip), vehicle: Klucel (hydroxypropylcellulose) (HPC)): 112 % of control
- T/C (dose: 100.0 mg/kg/injection, schedule: Q01DX009 (ip), vehicle: Klucel (hydroxypropylcellulose) (HPC)): 116 % of control

Structure (SMILES): CCN(CC)c1ccc2cc(C(=O)c3cccs3)c(=O)oc2c1
- T/C [1]: 104 % of control
- T/C [5]: 96 % of control
- T/C (dose: 240.0 mg/kg/injection, schedule: Q01DX005 (ip), vehicle: saline with Tween-80): 103 % of control

Structure (SMILES): O=C(Nc1cccc(Cl)c1Cl)SCCSC(=O)Nc1cccc(Cl)c1Cl
- T/C (dose: 50.0 mg/kg/injection, schedule: Q01DX009 (ip), vehicle: gum acacia): 92 % of control
- T/C (dose: 100.0 mg/kg/injection, schedule: Q01DX009 (ip), vehicle: gum acacia): 100 % of control
- T/C (dose: 200.0 mg/kg/injection, schedule: Q01DX009 (ip), vehicle: gum acacia): 96 % of control

Structure (SMILES): O=C(O)CCCCc1ccc(CCCCC(=O)O)c2ccccc12
- T/C (dose: 100.0 mg/kg/injection, schedule: Q04DX003 (ip), vehicle: saline with Tween-80): 103 % of control
- T/C (dose: 200.0 mg/kg/injection, schedule: Q04DX003 (ip), vehicle: saline with Tween-80): 102 % of control
- T/C (dose: 400.0 mg/kg/injection, schedule: Q04DX003 (ip), vehicle: saline with Tween-80): 99 % of control

Structure (SMILES): N#CC(CCCC(C#N)(c1ccccc1)c1ccccc1)(c1ccccc1)c1ccccc1
- T/C [6]: 100 % of control
- T/C [7]: 101 % of control
- T/C [8]: 105 % of control

Structure (SMILES): COC(=O)c1ccccc1N=NNc1ccccc1C#N
- T/C [6]: 109 % of control
- T/C [7]: 103 % of control
- T/C [8]: 94 % of control

Structure (SMILES): O=C(O)c1c(Cl)c(Cl)c(Cl)c(Cl)c1C(=O)OCC1CCCO1 (centres undefined)
- T/C [9]: 90 % of control
- T/C [10]: 106 % of control
- T/C (dose: 200.0 mg/kg/injection, schedule: Q01DX009 (ip), vehicle: saline with Tween-80): 101 % of control

Structure (SMILES): CC(=O)NCCSSSCCNC(C)=O
- T/C [11]: 115 % of control
- T/C [12]: 115 % of control

Structure (SMILES): CN(CO)c1nc(N(C)CO)nc(N(C)CO)n1
- T/C (dose: 12.5 mg/kg/injection, schedule: Q01DX009 (ip), vehicle: saline with Tween-80): 110 % of control
- T/C (dose: 12.5 mg/kg/injection, schedule: Q01DX009 (ip), vehicle: saline): 103 % of control
- T/C [13]: 119 % of control
- T/C (dose: 50.0 mg/kg/injection, schedule: Q01DX009 (ip), vehicle: saline): 160 % of control
- T/C [10]: 151 % of control
- T/C (dose: 100.0 mg/kg/injection, schedule: Q01DX009 (ip), vehicle: saline): 203 % of control

Structure (SMILES): CCCCCCCCCCCCCCCC(O)S(=O)(=O)O (centres undefined)
- T/C [13]: 100 % of control
- T/C [9]: 100 % of control
- T/C [10]: 100 % of control

Structure (SMILES): CNC(=O)C1CCCCC1Br (centres undefined)
- T/C [2]: 103 % of control
- T/C [3]: 103 % of control
- T/C [4]: 105 % of control

Structure (SMILES): O=[N+]([O-])C1=CC(=N/Cl)/C=CC/1=N/Cl
- T/C (dose: 12.5 mg/kg/injection, schedule: Q01DX005 (ip), vehicle: saline): 105 % of control
- T/C (dose: 25.0 mg/kg/injection, schedule: Q01DX005 (ip), vehicle: saline): 100 % of control
- T/C [11]: 101 % of control and 97 % of control
- T/C [12]: 106 % of control
- T/C (dose: 200.0 mg/kg/injection, schedule: Q01DX005 (ip), vehicle: saline): 116 % of control

Structure (SMILES): CC(=O)OCc1cnccc1Cl
- T/C (dose: 100.0 mg/kg/injection, schedule: Q04DX002 (ip), vehicle: saline with Tween-80): 100 % of control
- T/C (dose: 200.0 mg/kg/injection, schedule: Q04DX002 (ip), vehicle: saline with Tween-80): 102 % of control
- T/C (dose: 400.0 mg/kg/injection, schedule: Q04DX002 (ip), vehicle: saline with Tween-80): 94 % of control

Structure (SMILES): CN1CCN(c2ncc(S(=O)(=O)Cc3ccc(Cl)cc3)c(N)n2)CC1
- T/C (dose: 100.0 mg/kg/injection, schedule: Q01DX001 (ip), vehicle: saline): 95 % of control
- T/C (dose: 200.0 mg/kg/injection, schedule: Q01DX001 (ip), vehicle: saline): 98 % of control
- T/C (dose: 400.0 mg/kg/injection, schedule: Q01DX001 (ip), vehicle: saline): 98 % of control

Structure (SMILES): O=S1(=O)NC2CCC3NS(=O)(=O)NC4CCC(N1)N4S(=O)(=O)N23 (centres undefined)
- T/C (dose: 50.0 mg/kg/injection, schedule: Q01DX005 (ip), vehicle: distilled water + alcohol): 101 % of control
- T/C (dose: 100.0 mg/kg/injection, schedule: Q01DX005 (ip), vehicle: distilled water + alcohol): 109 % of control
- T/C (dose: 200.0 mg/kg/injection, schedule: Q01DX005 (ip), vehicle: distilled water + alcohol): 105 % of control

Structure (SMILES): CC(C)C(Br)C(N)=O (centres undefined)
- T/C (dose: 100.0 mg/kg/injection, schedule: Q04DX002 (ip), vehicle: Klucel (hydroxypropylcellulose) (HPC)): 100 % of control
- T/C (dose: 200.0 mg/kg/injection, schedule: Q04DX002 (ip), vehicle: Klucel (hydroxypropylcellulose) (HPC)): 103 % of control
- T/C (dose: 400.0 mg/kg/injection, schedule: Q04DX002 (ip), vehicle: Klucel (hydroxypropylcellulose) (HPC)): 105 % of control

Structure (SMILES): CN1C(c2ccccc2Cl)C2CCCC(C2O)C1c1ccccc1Cl (centres undefined)
- T/C (dose: 100.0 mg/kg/injection, schedule: Q04DX003 (ip), vehicle: saline): 100 % of control
- T/C (dose: 200.0 mg/kg/injection, schedule: Q04DX003 (ip), vehicle: saline): 100 % of control
- T/C (dose: 400.0 mg/kg/injection, schedule: Q04DX003 (ip), vehicle: saline): 95 % of control
